Ten substances from patent US20120029054A1, “RNA Interference Mediated Inhibition of GATA Binding Protein 3 (GATA3) Gene Expression Using Short Intefering Nucleic Acid (siNA)” (Merck Sharp & Dohme Corp., priority 2009, published 2012) can be followed below.

[invAb] = inverted abasic unit; m = 2'-O-methyl; r = 2'-OH (RNA); f = 2'-fluoro

For data set [1], the system named is GATA3 mRNA. Briefly: GATA3 mRNA knock-down (Taqman qRT-PCR) after RNAiMax transfection of human MCF7 cells; screen and IC50 dose response. The following applies: 10 nM siNA, MCF7 cells, 24 hrs. It is filed as cell-based. On the procedure: MCF7 (human; ATCC cat# HTB-22): Cells were cultured at 37° C. in the presence of 5% CO2 and grown in Eagle's Minimum Essential medium with supplemented with fetal bovine serum at a final concentration of 10% and 100 μg/mL of streptomycin and 100 U/mL penicillin.
(§1) Cells were plated in all wells of a tissue-culture treated, 96-well plate at a final count of 5000 cells/well in 100 μL of the appropriate culture media. The cells were cultured for 24 hours after plating at 37° C. in the presence of 5% CO2.
(§2) After 24 hours, complexes containing siNA and RNAiMax were created as follows: A solution of RNAiMax diluted 33-fold in OPTI-MEM was prepared. In parallel, solutions of the siNAs for testing were prepared to a final concentration of 120 nM in OPTI-MEM. After incubation of RNAiMax/OPTI-MEM solution at room temperature for 5 min, an equal volume of the siNA solution and the RNAiMax solution were added together for each of the siNAs.
(§3) This solution was incubated at room temperature for 20 minutes. After incubation, 20 uL of the solution was added to each of the relevant wells. The final concentration of siNA in each well was 10 nM and the final volume of RNAiMax in each well was 0.3 ul.
(§4) The time of incubation with the RNAiMax-siNA complexes was 24 hours and there was no change in media between transfection and harvesting, unless otherwise indicated.
(§5) RNA was extracted from a 96-well plate using the TaqMan® Gene Expression Cells-to-CT™ Kit (Cat#4399002) with a modified protocol. Briefly, a 60 uL (1 plate) or 110 uL (2 plates) of the Lysis Solution with DNase I was dispensed into each well of the Lysis Buffer Plate (twin.tec full skirt plate). The lysis buffer and stop plates were stored at 4° C. until the cells were washed.
(§6) The plate was spun at 1100 rpm for 5 minutes. The culture medium was aspirated and discarded from the wells of the culture plate. The lysis was performed automatically using a BioMek FX instrument and method. After the Biomek method was completed, the lysis plate was incubated for 2 min. at room temperature. The lysis plate can be stored for 2 hours at 4° C., or at −20° C. or −80° C. for two months.
(§7) Each well of the reverse transcription plate required 10 uL of 2× reverse transcriptase Buffer, 1 uL of 20× reverse transcription enzyme and 2 uL of nuclease-free water. The reverse transcription master mix was prepared by mixing 2× reverse transcription buffer, 20× reverse transcription enzyme mix, and nuclease-free water. 13 uL of the reverse transcription master mix was dispensed into each well of the reverse transcription plate (semi-skirted). A separate reverse transcription plate was prepared for each cell plate. The plate was loaded onto a Biomek NX or Biomek FX Dual-96 and the Biomek method was run. The program is programmed to automatically added 7 uL of lysate from the cell lysis procedure described above into each well of the reverse transcription plate. The plate is sealed and spun on a centrifuge (1000 rpm for 30 seconds) to settle the contents to the bottom of the reverse transcription plate. The plate is placed in a thermocycler at 37° C. for 60 min, 95° C. for 5 min, and 4° C. until the plate is removed from the thermocycler. Upon removal, if not used immediately, the plate was frozen at −20° C.
(§8) A series of probes and primers were used to detect the various mRNA transcripts of the genes of β-Actin (human cell line only), and of GATA3 and GAPDH in mouse and human cell lines. All Taqman probes and primers for the experiments here-in described were supplied as pre-validated sets by Applied Biosystems, Inc. (see Table 2).
(§9) The assays were performed on an ABI 7900 instrument, according to the manufacturer's instructions. A TaqMan Gene Expression Master Mix (provided in the Cells-to-CT™, Applied Biosystems, Cat #4399002) was used. The PCR reactions were carried out at 50° C. for 2 min, 95° C. for 20 min followed by 40 cycles at 95° C. for 15 secs and 60° C. for 1 min. […]
(In general: Quantitative PCR measures a nucleic acid by following its amplification.)

Data set [2] relates to GATA3 mRNA. Briefly: GATA3 mRNA knock-down (Taqman qRT-PCR) after RNAiMax transfection of mouse RAG cells. It counts as cell-based. The following applies: 10 nM siNA, 24 hrs, average of 2 experiments. Here is the method:
RAG (murine; ATCC cat# CCL-142): Cells were cultured at 37° C. in the presence of 5% CO2 and grown in Eagle's Minimum Essential medium with supplemented with 10% of fetal bovine serum, 100 μg/mL of streptomycin, and 100 U/mL penicillin.
as §1, §2, §3, §4, §5, §6, §7, §8, §9

Turning to “30277-DC: GATA3 siNA duplex, mouse site 1535: sense B cAuccuGcGcGAAcuGucA TTB (SEQ 107), antisense UGAcAGuucGcGcAGGAuGUU (SEQ 108) (sense CAUCCUGCGCGAACUGUCATT; antisense UGACAGUUCGCGCAGGAUGUU; sense: DNA at AGT, 2'-fluoro at CU, [invAb] at 5' end, 3' end, backbone not given here; antisense: sugars from the 5' end rrrfmmfffmfmfmmmmfmmm, backbone not given here)”, the “% KD Human” value in data set [1] (average of 3 experiments) is −4 ± 7%. In addition, the “% KD Mouse” value in data set [2] was found to be 26 ± 4%.
Taken in the same sequence, the figures for “30278-DC: GATA3 siNA duplex, mouse site 720: sense B GGAAGAGGuGGAcGuAcuu TTB (SEQ 109), antisense AAGuAcGuCCAccucuuccUU (SEQ 110) (sense GGAAGAGGUGGACGUACUUTT; antisense AAGUACGUCCACCUCUUCCUU; sense: DNA at AGT, 2'-fluoro at CU, [invAb] at 5' end, 3' end, backbone not given here; antisense: chemistry not given here)” were −18 ± 5% and 60 ± 2%.
Taken in the same sequence, the figures for “30279-DC: GATA3 siNA duplex, mouse site 1448: sense B ccuGcGGAcucuAccAuAA TTB (SEQ 111), antisense UUAuGGuAGAGuccGcAGGUU (SEQ 112) (sense CCUGCGGACUCUACCAUAATT; antisense UUAUGGUAGAGUCCGCAGGUU; sense: DNA at AGT, 2'-fluoro at CU, [invAb] at 5' end, 3' end, backbone not given here; antisense: sugars from the 5' end rrrfmmfmmmmfffmfmmmmm, backbone not given here)” were −27 ± 12% and 68 ± 4%.
Turning to “30280-DC: GATA3 siNA duplex, mouse site 1106: sense B ccGGGucGGccAGGcAAGA TTB (SEQ 113), antisense UCUuGccuGGccGAcccGGUU (SEQ 114) (sense CCGGGUCGGCCAGGCAAGATT; antisense UCUUGCCUGGCCGACCCGGUU; sense: DNA at AGT, 2'-fluoro at CU, [invAb] at 5' end, 3' end, backbone not given here; antisense: sugars from the 5' end rrrfmfffmmffmmfffmmmm, backbone not given here)”, the “% KD Human” value in data set [1] (average of 3 experiments) is listed as −16 ± 12%. Also, the “% KD Mouse” value in data set [2] stood at 1 ± 2%.
On to “30281-DC: GATA3 siNA duplex, human/mouse site 904: sense B ccuucuccAAGAcGuccAu TTB (SEQ 115), antisense AUGGAcGucuuGGAGAAGGUU (SEQ 116) (sense CCUUCUCCAAGACGUCCAUTT; antisense AUGGACGUCUUGGAGAAGGUU; sense: DNA at AGT, 2'-fluoro at CU, [invAb] at 5' end, 3' end, backbone not given here; antisense: sugars from the 5' end rrrmmfmffffmmmmmmmmmm, backbone not given here)”, for which the “% KD Human” value in data set [1] (average of 3 experiments) is −14 ± 7%. In data set [2], the “% KD Mouse” value came out at 13 ± 3%.
The corresponding values for “30282-DC: GATA3 siNA duplex, human/mouse site 2587: sense B cAccAAAAuAAGAAAAGAu TTB (SEQ 117), antisense AUCuuuucuuAuuuuGGuGUU (SEQ 118) (sense CACCAAAAUAAGAAAAGAUTT; antisense AUCUUUUCUUAUUUUGGUGUU; sense: DNA at AGT, 2'-fluoro at CU, [invAb] at 5' end, 3' end, backbone not given here; antisense: sugars from the 5' end rrrfffffffmffffmmfmmm, backbone not given here)” are 46 ± 8% and 84 ± 1%.
Turning to “30283-DC: GATA3 siNA duplex, human/mouse site 3067: sense B GucccuGuAAuuGuuGuuu TTB (SEQ 119), antisense AAAcAAcAAuuAcAGGGAcUU (SEQ 120) (sense GUCCCUGUAAUUGUUGUUUTT; antisense AAACAACAAUUACAGGGACUU; sense: DNA at AGT, 2'-fluoro at CU, [invAb] at 5' end, 3' end, backbone not given here; antisense: sugars from the 5' end rrrfmmfmmffmfmmmmmfmm, backbone not given here)”, the “% KD Human” value in data set [1] (average of 3 experiments) is 32 ± 5%. Further, the “% KD Mouse” value in data set [2] is given as 47 ± 1%.
Consider “30284-DC: GATA3 siNA duplex, human/mouse site 2155: sense B uGcuGAAcAuuGcAuAuAA TTB (SEQ 121), antisense UUAuAuGcAAuGuucAGcAUU (SEQ 122) (sense UGCUGAACAUUGCAUAUAATT; antisense UUAUAUGCAAUGUUCAGCAUU; sense: DNA at AGT, 2'-fluoro at CU, [invAb] at 5' end, 3' end, backbone not given here; antisense: sugars from the 5' end rrrfmfmfmmfmfffmmfrmm, backbone not given here)”, for which the “% KD Human” value in data set [1] (average of 3 experiments) was 46 ± 5%. In addition, the “% KD Mouse” value in data set [2] was found to be 65 ± 0%.
As to “30285-DC: GATA3 siNA duplex, human/mouse site 2129: sense B GGucucuAGuGcuGuGAAA TTB (SEQ 123), antisense UUUcAcAGcAcuAGAGAccUU (SEQ 124) (sense GGUCUCUAGUGCUGUGAAATT; antisense UUUCACAGCACUAGAGACCUU; sense: DNA at AGT, 2'-fluoro at CU, [invAb] at 5' end, 3' end, backbone not given here; antisense: sugars from the 5' end rrrfmfmmfmffmmmmmffmm, backbone not given here)”, the “% KD Human” value in data set [1] (* Hs00231122_m1 Taqman Assay) is recorded as 49 ± 11* %; in data set [1] (** Hs00922328_m1 Taqman Assay) it was 52 ± 10** %. For the same substance, the “% KD Mouse” value in data set [2] stood at 69 ± 1%.
The corresponding values for “30286-DC: GATA3 siNA duplex, human/mouse site 1956: sense B GcAGGAGcAGuAucAuGAA TTB (SEQ 125), antisense UUCAuGAuAcuGcuccuGcUU (SEQ 126) (sense GCAGGAGCAGUAUCAUGAATT; antisense UUCAUGAUACUGCUCCUGCUU; sense: DNA at AGT, 2'-fluoro at CU, [invAb] at 5' end, 3' end, backbone not given here; antisense: sugars from the 5' end rrrmfmmfmffmfffffmfmm, backbone not given here)” are 45 ± 3* %, 40 ± 16** % and 66 ± 0%.
